{"source": "patent US20120269739A1", "about": "“COMPOSITION, USE, AND PRESERVATION METHOD” (L'OREAL, priority 2009, published 2012)", "type_in_all_cases": "cell-based", "key": {"[1]": {"test_system": "Aspergillus niger (An) ATCC 6275", "test": "Challenge Test (artificial contamination) of cosmetic formula", "conditions": "22° C., chlorhexidine digluconate 0.3%, gingerone 2%", "from_the_text": "(§1) 5 pure microorganism cultures are used."}, "[2]": {"test_system": "Candida albicans (Ca) ATCC 10231", "test": "Challenge Test (artificial contamination) of cosmetic formula", "conditions": "22° C., chlorhexidine digluconate 0.3%, gingerone 2%; for Log reduction number after 7 days of contact, relative to the control, Candida albicans: Amt weight %: sodium benzoate 0.6%", "from_the_text": "as §1"}, "[3]": {"test_system": "Enterococcus faecalis (Ef) ATCC 33186", "test": "Challenge Test (artificial contamination) of cosmetic formula", "conditions": "22° C., chlorhexidine digluconate 0.3%, gingerone 2%", "from_the_text": "as §1"}, "[4]": {"test_system": "Escherichia coli (Ec) ATCC 8739", "test": "Challenge Test (artificial contamination) of cosmetic formula", "conditions": "22° C., chlorhexidine digluconate 0.3%, gingerone 2%", "from_the_text": "as §1"}, "[5]": {"test_system": "Enterococcus faecalis (ATCC 33186)", "test": "Action kinetics in broth", "conditions": "TS broth pH 5.2±0.3, 35° C., gingerone 2%, sodium benzoate 3.3%, chlorhexidine digluconate 2.2%", "method": "(§2) The object of this example is to distinguish a compound according to the invention (gingerone) from the preserving agents conventionally used for protecting cosmetic formulations against microbial contamination, as regards the action kinetics.\n(§3) The solutions are prepared in Trypto-casein-soya (TS) broth for the bacteria and in Sabouraud broth for the yeast. These solutions are adjusted to pH 5.2±0.3.\n(§4) For each microbial solution, a growth control consisting of the appropriate culture medium alone is prepared.\n(§5) The solutions in TS broth (36 ml) are inoculated separately with each of the bacteria (4 ml of microbial suspension) to a final content of 10^6 cfu/ml of mixture.\n(§6) The inoculated samples are then placed in an incubator-agitator at 35° C.±2° C. Samples are taken after 6 hours, 24 hours, 48 hours, 72 hours and 7 days. Decimal dilutions are then prepared in Eugon LT100 broth. These dilutions are left for 30 minutes±15 minutes at 25° C. in order to neutralize the preserving agents, and are then double-seeded on the surface of Petri dishes containing Eugon LT100 agar.\n(§7) The Petri dishes are then incubated in an oven at 35° C.±2° C. for a variable time depending on the strain concerned: • 48 hours; S. aureus; • 5 days: E. faecalis and C. albicans.\n(§8) The results are expressed for each solution, each strain and each contact time as the number of cfu/ml of stock solution."}, "[6]": {"test_system": "Staphylococcus aureus (ATCC 6538)", "test": "Action kinetics in broth", "conditions": "TS broth pH 5.2±0.3, 35° C., gingerone 2%, sodium benzoate 3.3%, chlorhexidine digluconate 2.2%", "method": "as §2, §3, §4, §5, §6, §7, §8"}, "[7]": {"test_system": "Candida albicans (ATCC 10231)", "test": "Action kinetics in broth", "conditions": "Sabouraud broth pH 5.2±0.3, 35° C., gingerone 2%, sodium benzoate 3.3%, chlorhexidine digluconate 2.2%", "method": "as §2, §3, §4\nThe solutions in Sabouraud broth (36 ml) are inoculated with the yeast (4 ml of suspension) to a final content of 10^6 cfu/ml.\nas §6, §7, §8"}, "[8]": {"conditions": "1st formula O/W emulsion, Amt weight %: phenoxyethanol 1%, sodium benzoate 0.6%"}, "[9]": {"conditions": "2nd formula lotion (pH 7 ± 0.2), Amt weight %: sodium benzoate 0.6%, phenoxyethanol 1%"}, "[10]": {"conditions": "3rd formula O/W emulsion, Amt weight %: sodium benzoate 0.6%"}}}
{"smiles": "O=C([O-])c1ccccc1.[Na+]", "note": "[Sodium benzoate]", "values": [{"measurement": "Log reduction number after 7 days of contact, relative to the control, A. niger", "setting": "[1]; [8]", "value": 0.5, "unit": "Log"}, {"measurement": "Log reduction number after 7 days of contact, relative to the control, A. niger", "setting": "[1]; [9]", "value": "<0.5", "unit": "Log"}, {"measurement": "Log reduction number after 7 days of contact, relative to the control, A. niger", "setting": "[1]; [10]", "value": 3, "unit": "Log"}, {"measurement": "Log reduction number after 7 days of contact, relative to the control, C. albicans", "setting": "[2]; [8]", "value": 0, "unit": "Log"}, {"measurement": "Log reduction number after 7 days of contact, relative to the control, Candida albicans", "setting": "[2]; 2nd formula lotion (pH 7 ± 0.2), phenoxyethanol 1%", "value": "<0.5", "unit": "Log"}, {"measurement": "Log reduction number after 7 days of contact, relative to the control, Candida albicans", "setting": "[2]; 3rd formula O/W emulsion", "value": ">4", "unit": "Log"}, {"measurement": "Log reduction number after 7 days of contact, relative to the control, E. faecalis", "setting": "[3]; [8]", "value": 0.6, "unit": "Log"}, {"measurement": "Log reduction number after 7 days of contact, relative to the control, E. faecalis", "setting": "[3]; [9]", "value": 1.4, "unit": "Log"}, {"measurement": "Log reduction number after 7 days of contact, relative to the control, E. faecalis", "setting": "[3]; [10]", "value": ">4", "unit": "Log"}, {"measurement": "Log reduction number after 7 days of contact, relative to the control, E. coli", "setting": "[4]; [8]", "value": 0.3, "unit": "Log"}, {"measurement": "Log reduction number after 7 days of contact, relative to the control, E. coli", "setting": "[4]; [9]", "value": 0.7, "unit": "Log"}, {"measurement": "Log reduction number after 7 days of contact, relative to the control, E. coli", "setting": "[4]; [10]", "value": ">4", "unit": "Log"}, {"measurement": "Number of cfu counted after strain/solution contact time, Enterococcus faecalis", "setting": "[5]; contact time 0 hours", "value": "2.5 × 10^6 cfu/ml"}, {"measurement": "Number of cfu counted after strain/solution contact time, Enterococcus faecalis", "setting": "[5]; contact time 6 hours", "value": "4.4 × 10^5 cfu/ml"}, {"measurement": "Number of cfu counted after strain/solution contact time, Enterococcus faecalis", "setting": "[5]; contact time 24 hours", "value": "7.0 × 10^2 cfu/ml"}, {"measurement": "Number of cfu counted after strain/solution contact time, Enterococcus faecalis", "setting": "[5]; contact time 48 hours", "value": "<10", "unit": "cfu/ml"}, {"measurement": "Number of cfu counted after strain/solution contact time, Enterococcus faecalis", "setting": "[5]; contact time 72 hours", "value": "<10", "unit": "cfu/ml"}, {"measurement": "Number of cfu counted after strain/solution contact time, Enterococcus faecalis", "setting": "[5]; contact time 168 hours", "value": "<10", "unit": "cfu/ml"}, {"measurement": "Number of cfu counted after strain/solution contact time, Staphylococcus aureus", "setting": "[6]; contact time 0 hours, first series", "value": "1.7 × 10^6 cfu/ml"}, {"measurement": "Number of cfu counted after strain/solution contact time, Staphylococcus aureus", "setting": "[6]; contact time 0 hours, second series of Table 1", "value": "2.5 × 10^6 cfu/ml"}, {"measurement": "Number of cfu counted after strain/solution contact time, Staphylococcus aureus", "setting": "[6]; contact time 6 hours, first series", "value": "<10", "unit": "cfu/ml"}, {"measurement": "Number of cfu counted after strain/solution contact time, Staphylococcus aureus", "setting": "[6]; contact time 6 hours, second series of Table 1", "value": "<10", "unit": "cfu/ml"}, {"measurement": "Number of cfu counted after strain/solution contact time, Staphylococcus aureus", "setting": "[6]; contact time 24 hours, first series", "value": "<10", "unit": "cfu/ml"}, {"measurement": "Number of cfu counted after strain/solution contact time, Staphylococcus aureus", "setting": "[6]; contact time 24 hours, second series of Table 1", "value": "<10", "unit": "cfu/ml"}, {"measurement": "Number of cfu counted after strain/solution contact time, Staphylococcus aureus", "setting": "[6]; contact time 48 hours, first series", "value": "<10", "unit": "cfu/ml"}, {"measurement": "Number of cfu counted after strain/solution contact time, Staphylococcus aureus", "setting": "[6]; contact time 48 hours, second series of Table 1", "value": "<10", "unit": "cfu/ml"}, {"measurement": "Number of cfu counted after strain/solution contact time, Staphylococcus aureus", "setting": "[6]; contact time 72 hours, first series", "value": "<10", "unit": "cfu/ml"}, {"measurement": "Number of cfu counted after strain/solution contact time, Staphylococcus aureus", "setting": "[6]; contact time 72 hours, second series of Table 1", "value": "<10", "unit": "cfu/ml"}, {"measurement": "Number of cfu counted after strain/solution contact time, Staphylococcus aureus", "setting": "[6]; contact time 168 hours, first series", "value": "<10", "unit": "cfu/ml"}, {"measurement": "Number of cfu counted after strain/solution contact time, Staphylococcus aureus", "setting": "[6]; contact time 168 hours, second series of Table 1", "value": "<10", "unit": "cfu/ml"}, {"measurement": "Number of cfu counted after strain/solution contact time, Candida albicans", "setting": "[7]; contact time 0 hours", "value": "2.9 × 10^6 cfu/ml"}, {"measurement": "Number of cfu counted after strain/solution contact time, Candida albicans", "setting": "[7]; contact time 6 hours", "value": "<10", "unit": "cfu/ml"}, {"measurement": "Number of cfu counted after strain/solution contact time, Candida albicans", "setting": "[7]; contact time 24 hours", "value": "<10", "unit": "cfu/ml"}, {"measurement": "Number of cfu counted after strain/solution contact time, Candida albicans", "setting": "[7]; contact time 48 hours", "value": "<10", "unit": "cfu/ml"}, {"measurement": "Number of cfu counted after strain/solution contact time, Candida albicans", "setting": "[7]; contact time 72 hours", "value": "<10", "unit": "cfu/ml"}, {"measurement": "Number of cfu counted after strain/solution contact time, Candida albicans", "setting": "[7]; contact time 168 hours", "value": "<10", "unit": "cfu/ml"}]}
